Measurements from PubChem BioAssay AID832 (PCMD, 2007).
Records with an inconclusive call do not appear. Calls of active or inactive are those of the source. No rule for the calls is given here.

molecular target: Cathepsin G (Homo sapiens) (UniProt P08311); assay: IC50 of CTSG protease blockers – biochemical, confirmation, dose response (AID 832); settings: purified cathepsin G enzyme activity, signal read-out
Sequence (P08311 21-244 limits assumed): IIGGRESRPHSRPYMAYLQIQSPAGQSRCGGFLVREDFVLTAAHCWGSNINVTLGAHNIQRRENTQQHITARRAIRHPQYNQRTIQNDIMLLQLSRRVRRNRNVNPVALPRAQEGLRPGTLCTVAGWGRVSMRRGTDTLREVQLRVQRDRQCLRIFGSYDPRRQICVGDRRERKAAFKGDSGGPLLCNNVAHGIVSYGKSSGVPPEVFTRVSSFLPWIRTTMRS

IC50, inactive:
COc1ccc(C2C(C(=O)c3cccs3)=C(O)C(=O)N2c2nncs2)cc1 (stereo not drawn) > 50 µM, COC(=O)c1sc(N2C(=O)C(O)=C(C(=O)c3ccc(C)o3)C2c2ccc(F)cc2)nc1C (stereo not drawn) > 50 µM, O=C1CCCC(O)=C1C=NCCc1ccccc1 > 50 µM
